Source: patent US20210392895A1, “NOVEL OXADIAZOLES” (PI INDUSTRIES LIMITED, priority 2018, published 2021)
Where a name gives a salt, the structure may show the parent alone.

Tested on: Phakopsora pachyrhizi
Experiment: Phakopsora pachyrhizi test in soybean (greenhouse, preventive activity, disease severity rating)
Assay type: in vivo
Conditions: preventive spray on soybean, compared to the untreated check
Experimental: To test the preventive activity of compounds, healthy young soybean plants, raised in the greenhouse, were sprayed with the active compound solution at the stated application rates inside spray cabinets using hallowcone nozzles. One day after treatment, the plants were inoculated with a suspension containing 2.1×10^6 Phakopsora pachyrhizi spores. The inoculated plants were then kept in the greenhouse chamber at 25° C. temperature and 90% relative humidity for disease expression. A visual assessment of the compound's performance was carried out by rating the disease severity (0-100% scale) on treated plants on 3, 7, 10 and 15 days after application. Efficacy (% control) of the compounds was calculated by comparing the disease rating in the treatment with the one of the untreated control. The treated plants were also assessed for plant compatibility by recording symptoms like necrosis, chlorosis and stunting.

Structure (SMILES)	pest or weed control at 500 ppm [%]
O=S(=O)(c1ccc(C(F)(F)F)cc1)N1CC[C@H](Oc2ccc(-c3noc(C(F)(F)F)n3)cn2)C1 [Compound 109, (S)-5-(trifluoromethyl)-3-(6-((1-((4-(trifluoromethyl)phenyl)sulfonyl)pyrrolidin-3-yl)oxy)pyridin-3-yl)-1,2,4-oxadiazole]	> 70
O=S(=O)(c1ccc(F)cc1)N1CC[C@H](Oc2ccc(-c3noc(C(F)(F)F)n3)cc2)C1 [Compound 35, (S)-3-(4-((1-((4-fluorophenyl)sulfonyl)pyrrolidin-3-yl)oxy)phenyl)-5-(trifluoromethyl)-1,2,4-oxadiazole]	> 70
CN(C)c1ccc(C(=O)N2CC[C@H](Oc3ccc(-c4noc(C(F)(F)F)n4)cc3)C2)cc1 [Compound 8, (S)-(4-(dimethylamino)phenyl)(3-(4-(5-(trifluoromethyl)-1,2,4-oxadiazol-3-yl)phenoxy)pyrrolidin-1-yl)methanone]	> 70
N#Cc1ccc(S(=O)(=O)N2CC[C@H](Oc3ccc(-c4noc(C(F)(F)F)n4)cc3)C2)cc1 [Compound 121, (S)-4-((3-(4-(5-(trifluoromethyl)-1,2,4-oxadiazol-3-yl)phenoxy)pyrrolidin-1-yl)sulfonyl)benzonitrile]	> 70
O=S(=O)(c1ccc(F)cc1F)N1CC[C@H](Oc2ccc(-c3noc(C(F)(F)F)n3)cc2)C1 [Compound 42, (S)-3-(4-((1-((2,4-difluorophenyl)sulfonyl)pyrrolidin-3-yl)oxy)phenyl)-5-(trifluoromethyl)-1,2,4-oxadiazole]	> 70
O=C(c1cccc(F)c1)N1CC[C@H](Oc2ccc(-c3noc(C(F)(F)F)n3)nc2)C1 [Compound 30, (S)-(3-fluorophenyl)(3-((6-(5-(trifluoromethyl)-1,2,4-oxadiazol-3-yl)pyridin-3-yl)oxy)pyrrolidin-1-yl)methanone]	> 70
CC(C)(C)C(=O)N1CCC(Oc2cccc(-c3noc(C(F)(F)F)n3)c2)C1 (centres unmarked) [Compound 130, 2,2-dimethyl-1-(3-(3-(5-(trifluoromethyl)-1,2,4-oxadiazol-3-yl)phenoxy)pyrrolidin-1-yl)propan-1-one]	> 70
O=C(c1ccccc1F)N1CC[C@H](Oc2ccc(-c3noc(C(F)(F)F)n3)nc2)C1 [Compound 28, (S)-(2-fluorophenyl)(3-((6-(5-(trifluoromethyl)-1,2,4-oxadiazol-3-yl)pyridin-3-yl)oxy)pyrrolidin-1-yl)methanone]	> 70
O=S(=O)(c1ccccc1)N1CC[C@H](Oc2ccc(-c3noc(C(F)(F)F)n3)cc2)C1 [Compound 25, (S)-3-(4-((1-(phenylsulfonyl)pyrrolidin-3-yl)oxy)phenyl)-5-(trifluoromethyl)-1,2,4-oxadiazole]	> 70
CN(c1ccc(-c2noc(C(F)(F)F)n2)cc1)C1CN(C(=O)c2ccc(C(F)(F)F)cc2)C1 [Compound 101, (3-(methyl(4-(5-(trifluoromethyl)-1,2,4-oxadiazol-3-yl)phenyl)amino)azetidin-1-yl)(4-(trifluoromethyl)phenyl)methanone]	> 70
O=C(c1cncnc1)N1CC[C@H](Oc2ccc(-c3noc(C(F)(F)F)n3)cc2)C1 [Compound 57, (S)-pyrimidin-5-yl(3-(4-(5-(trifluoromethyl)-1,2,4-oxadiazol-3-yl)phenoxy)pyrrolidin-1-yl)methanone]	> 70
CCS(=O)(=O)N1CC[C@H](Oc2ccc(-c3noc(C(F)(F)F)n3)cn2)C1 [Compound 50, (S)-3-(6-((1-(ethylsulfonyl)pyrrolidin-3-yl)oxy)pyridin-3-yl)-5-(trifluoromethyl)-1,2,4-oxadiazole]	> 70
COc1ccc(C(=O)N2CC[C@H](Oc3ccc(-c4noc(C(F)(F)F)n4)cc3F)C2)cc1 [Compound 53, (S)-(3-(2-fluoro-4-(5-(trifluoromethyl)-1,2,4-oxadiazol-3-yl)phenoxy)pyrrolidin-1-yl)(4-methoxyphenyl)methanone]	> 70
O=C(c1ccccc1F)N1CC[C@@H](Oc2ccc(-c3noc(C(F)(F)F)n3)cn2)C1 [Compound 74, (R)-(2-fluorophenyl)(3-((5-(5-(trifluoromethyl)-1,2,4-oxadiazol-3-yl)pyridin-2-yl)oxy)pyrrolidin-1-yl)methanone]	> 70
O=C(c1ccc(OC(F)(F)F)cc1)N1CC[C@H](Oc2ccc(-c3noc(C(F)(F)F)n3)cc2)C1 [Compound 36, (S)-(4-(trifluoromethoxy)phenyl)(3-(4-(5-(trifluoromethyl)-1,2,4-oxadiazol-3-yl)phenoxy)pyrrolidin-1-yl)methanone]	> 70
FC(F)(F)c1nc(-c2cccc(OC3CCNC3)c2)no1 (centres unmarked) [Compound 128, 3-(3-(pyrrolidin-3-yloxy)phenyl)-5-(trifluoromethyl)-1,2,4-oxadiazole hydrochloride]	> 70

Structure (SMILES)	pest or weed control at 500 ppm [%]
O=C(c1ccccc1F)N1CC[C@H](Oc2ccc(-c3noc(C(F)(F)F)n3)c(F)c2)C1 [Compound 63, (S)-(3-(3-fluoro-4-(5-(trifluoromethyl)-1,2,4-oxadiazol-3-yl)phenoxy)pyrrolidin-1-yl)(2-fluorophenyl)methanone]	> 70
O=S(=O)(c1cccc(F)c1)N1CC[C@H](Oc2ccc(-c3noc(C(F)(F)F)n3)cn2)C1 [Compound 149, (S)-3-(6-((1-((3-fluorophenyl)sulfonyl)pyrrolidin-3-yl)oxy)pyridin-3-yl)-5-(trifluoromethyl)-1,2,4-oxadiazole]	> 70
CN(c1ccc(-c2noc(C(F)(F)F)n2)cc1)C1CN(C(=O)c2cccc(Cl)c2)C1 [Compound 88, (3-chlorophenyl)(3-(methyl(4-(5-(trifluoromethyl)-1,2,4-oxadiazol-3-yl)phenyl)amino)azetidin-1-yl)methanone]	> 70
Cc1ccc(S(=O)(=O)N2CC[C@H](Oc3ccc(-c4noc(C(F)(F)F)n4)cn3)C2)cc1 [Compound 107, (S)-3-(6-((1-tosylpyrrolidin-3-yl)oxy)pyridin-3-yl)-5-(trifluoromethyl)-1,2,4-oxadiazole]	> 70
O=S(=O)(c1ccccc1F)N1CC[C@H](Oc2ccc(-c3noc(C(F)(F)F)n3)cn2)C1 [Compound 152, (S)-3-(6-((1-((2-fluorophenyl)sulfonyl)pyrrolidin-3-yl)oxy)pyridin-3-yl)-5-(trifluoromethyl)-1,2,4-oxadiazole]	> 70
O=C(c1cccnc1)N1CC[C@@H](Oc2ccc(-c3noc(C(F)(F)F)n3)cn2)C1 [Compound 79, (R)-pyridin-3-yl(3-((5-(5-(trifluoromethyl)-1,2,4-oxadiazol-3-yl)pyridin-2-yl)oxy)pyrrolidin-1-yl)methanone]	> 70
O=C(c1cccnc1)N1CC[C@H](Oc2ccc(-c3noc(C(F)(F)F)n3)nc2)C1 [Compound 31, (S)-pyridin-3-yl(3-((6-(5-(trifluoromethyl)-1,2,4-oxadiazol-3-yl)pyridin-3-yl)oxy)pyrrolidin-1-yl)methanone]	> 70
CC(C)(C)OC(=O)N1CC[C@H](Oc2ccc(-c3noc(C(F)(F)F)n3)cc2)C1 [Compound 23, tert-butyl (S)-3-(4-(5-(trifluoromethyl)-1,2,4-oxadiazol-3-yl)phenoxy)pyrrolidine-1-carboxylate]	> 70
O=C(c1cccc(F)c1)N1CC[C@H](Oc2ccc(-c3noc(C(F)(F)F)n3)cc2F)C1 [Compound 54, (S)-(3-(2-fluoro-4-(5-(trifluoromethyl)-1,2,4-oxadiazol-3-yl)phenoxy)pyrrolidin-1-yl)(3-fluorophenyl)methanone]	> 70
O=S(=O)(C1CC1)N1CC[C@H](Oc2ccc(-c3noc(C(F)(F)F)n3)cn2)C1 [Compound 106, (S)-3-(6-((1-(cyclopropylsulfonyl)pyrrolidin-3-yl)oxy)pyridin-3-yl)-5-(trifluoromethyl)-1,2,4-oxadiazole]	> 70
CC(C)S(=O)(=O)N1CC[C@H](Oc2ccc(-c3noc(C(F)(F)F)n3)cn2)C1 [Compound 155, (S)-3-(6-((1-(isopropylsulfonyl)pyrrolidin-3-yl)oxy)pyridin-3-yl)-5-(trifluoromethyl)-1,2,4-oxadiazole]	> 70
O=C(C1CCC1)N1CC[C@H](Oc2ccc(-c3noc(C(F)(F)F)n3)cc2)C1 [Compound 9, (S)-cyclobutyl(3-(4-(5-(trifluoromethyl)-1,2,4-oxadiazol-3-yl)phenoxy)pyrrolidin-1-yl)methanone]	> 70
CN(c1ccc(-c2noc(C(F)(F)F)n2)cc1)C1CN(C(=O)OC(C)(C)C)C1 [Compound 80, tert-butyl 3-(methyl(4-(5-(trifluoromethyl)-1,2,4-oxadiazol-3-yl)phenyl)amino)azetidine-1-carboxylate]	> 70
CC(C)(C)OC(=O)N1CC(N(c2ccc(-c3noc(C(F)(F)F)n3)cc2)c2ccc(-c3noc(C(F)(F)F)n3)cc2)C1 [Compound 82, tert-butyl 3-(bis(4-(5-(trifluoromethyl)-1,2,4-oxadiazol-3-yl)phenyl)amino)azetidine-1-carboxylate]	> 70
O=C(C1CC1)N1CC[C@H](Oc2ccc(-c3noc(C(F)(F)F)n3)cc2)C1 [Compound 43, (S)-cyclopropyl(3-(4-(5-(trifluoromethyl)-1,2,4-oxadiazol-3-yl)phenoxy)pyrrolidin-1-yl)methanone]	> 70
CC(C)(C)OC(=O)N1CC[C@H](Oc2ccc(-c3noc(C(F)(F)F)n3)c(F)c2)C1 [Compound 62, tert-butyl (S)-3-(3-fluoro-4-(5-(trifluoromethyl)-1,2,4-oxadiazol-3-yl)phenoxy)pyrrolidine-1-carboxylate]	> 70
